Measurements reported in patent publication US20230117470A1, “SUBSTITUTED PYRAZOLE COMPOUNDS AS TOLL RECEPTOR INHIBITORS” (BRISTOL-MYERS SQUIBB COMPANY, priority 2019, published 2023).
Where a name gives a salt, the structure may show the parent alone.

What was measured:
Type in all cases: cell-based
[1] = molecular target: T1, human TLR8 (Homo sapiens, UniProt Q9NR97); assay: TLR8 inhibition reporter assay (HEK-Blue cells, SEAP reporter, R848 stimulation); details: HEK-Blue cells overexpressing human TLR8, SEAP reporter, R848 15.9 μM
T1 construct: host or cells: HEK-Blue cells
T1 sequence (Q9NR97 27-1041): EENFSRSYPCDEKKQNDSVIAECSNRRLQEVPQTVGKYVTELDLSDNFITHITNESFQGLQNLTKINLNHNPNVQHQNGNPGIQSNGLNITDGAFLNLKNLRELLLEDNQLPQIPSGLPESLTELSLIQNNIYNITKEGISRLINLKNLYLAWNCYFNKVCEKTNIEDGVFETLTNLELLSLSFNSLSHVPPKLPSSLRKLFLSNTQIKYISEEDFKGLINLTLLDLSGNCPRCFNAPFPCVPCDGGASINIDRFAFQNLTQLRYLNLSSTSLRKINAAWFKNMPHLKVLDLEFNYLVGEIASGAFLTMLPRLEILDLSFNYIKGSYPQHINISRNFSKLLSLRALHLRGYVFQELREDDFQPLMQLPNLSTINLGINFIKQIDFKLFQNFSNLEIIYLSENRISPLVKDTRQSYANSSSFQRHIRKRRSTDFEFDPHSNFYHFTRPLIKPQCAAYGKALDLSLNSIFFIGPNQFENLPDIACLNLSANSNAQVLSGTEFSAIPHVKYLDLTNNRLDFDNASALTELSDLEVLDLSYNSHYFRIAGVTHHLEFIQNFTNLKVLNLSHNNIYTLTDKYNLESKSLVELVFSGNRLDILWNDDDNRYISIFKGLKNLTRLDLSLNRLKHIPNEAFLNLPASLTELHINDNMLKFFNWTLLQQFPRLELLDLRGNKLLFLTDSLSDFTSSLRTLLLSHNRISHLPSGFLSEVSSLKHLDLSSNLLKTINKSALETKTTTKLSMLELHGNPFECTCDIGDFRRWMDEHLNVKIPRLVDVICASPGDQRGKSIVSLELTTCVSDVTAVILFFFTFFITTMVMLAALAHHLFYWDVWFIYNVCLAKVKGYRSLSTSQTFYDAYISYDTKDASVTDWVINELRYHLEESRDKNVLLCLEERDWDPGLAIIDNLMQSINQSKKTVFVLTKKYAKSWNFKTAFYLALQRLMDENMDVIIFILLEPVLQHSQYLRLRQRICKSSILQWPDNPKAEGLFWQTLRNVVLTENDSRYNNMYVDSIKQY
Summary of the method: (§1)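 Cells were pre-treated 30 min at room temperature with compound (final 0.05 nM–50 μM), then stimulated with gardiquimod 7.5 μM (TLR7), R848 15.9 μM (TLR8) or ODN2006 5 nM (TLR9). SEAP was read after 22 h at 37° C; percent inhibition scaled between agonist+DMSO and known-inhibitor wells.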

[2] = molecular target: T2, human TLR7 (Homo sapiens, UniProt Q9NYK1); assay: TLR7 inhibition reporter assay (HEK-Blue cells, SEAP reporter, gardiquimod stimulation); details: HEK-Blue cells overexpressing human TLR7, SEAP reporter, gardiquimod 7.5 μM
T2 construct: host or cells: HEK-Blue cells
T2 sequence (Q9NYK1 27-1049): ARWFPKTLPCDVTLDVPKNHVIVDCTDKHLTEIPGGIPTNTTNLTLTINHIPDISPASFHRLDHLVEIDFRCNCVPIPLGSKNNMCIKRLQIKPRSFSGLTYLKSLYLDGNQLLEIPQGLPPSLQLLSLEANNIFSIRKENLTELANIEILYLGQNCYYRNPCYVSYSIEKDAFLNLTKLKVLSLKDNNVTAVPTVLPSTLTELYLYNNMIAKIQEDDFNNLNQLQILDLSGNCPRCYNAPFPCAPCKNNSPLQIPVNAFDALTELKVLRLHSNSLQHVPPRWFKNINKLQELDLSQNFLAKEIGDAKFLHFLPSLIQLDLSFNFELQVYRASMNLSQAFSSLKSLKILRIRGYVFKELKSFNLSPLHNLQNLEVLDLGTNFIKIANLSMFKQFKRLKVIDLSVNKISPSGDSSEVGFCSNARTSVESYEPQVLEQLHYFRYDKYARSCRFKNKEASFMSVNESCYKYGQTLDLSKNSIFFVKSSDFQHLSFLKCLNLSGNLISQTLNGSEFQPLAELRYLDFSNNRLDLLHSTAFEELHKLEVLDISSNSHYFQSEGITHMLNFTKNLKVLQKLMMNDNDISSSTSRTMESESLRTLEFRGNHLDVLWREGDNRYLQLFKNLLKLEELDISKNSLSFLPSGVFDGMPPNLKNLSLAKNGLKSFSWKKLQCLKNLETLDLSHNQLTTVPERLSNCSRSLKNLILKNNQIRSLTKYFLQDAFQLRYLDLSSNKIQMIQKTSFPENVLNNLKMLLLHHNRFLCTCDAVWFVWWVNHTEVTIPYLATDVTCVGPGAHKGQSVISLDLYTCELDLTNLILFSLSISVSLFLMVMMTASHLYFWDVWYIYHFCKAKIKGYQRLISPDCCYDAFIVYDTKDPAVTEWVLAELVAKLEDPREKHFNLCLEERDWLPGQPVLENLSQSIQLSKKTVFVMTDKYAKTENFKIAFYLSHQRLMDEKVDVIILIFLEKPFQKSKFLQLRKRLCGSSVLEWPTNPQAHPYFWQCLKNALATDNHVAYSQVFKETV
Summary of the method: as §1

[3] = molecular target: T3, human TLR9 (Homo sapiens, UniProt Q9NR96); assay: TLR9 inhibition reporter assay (HEK-Blue cells, SEAP reporter, ODN2006 stimulation); details: HEK-Blue cells overexpressing human TLR9, SEAP reporter, ODN2006 5 nM
T3 construct: host or cells: HEK-Blue cells
T3 sequence (Q9NR96 26-1032): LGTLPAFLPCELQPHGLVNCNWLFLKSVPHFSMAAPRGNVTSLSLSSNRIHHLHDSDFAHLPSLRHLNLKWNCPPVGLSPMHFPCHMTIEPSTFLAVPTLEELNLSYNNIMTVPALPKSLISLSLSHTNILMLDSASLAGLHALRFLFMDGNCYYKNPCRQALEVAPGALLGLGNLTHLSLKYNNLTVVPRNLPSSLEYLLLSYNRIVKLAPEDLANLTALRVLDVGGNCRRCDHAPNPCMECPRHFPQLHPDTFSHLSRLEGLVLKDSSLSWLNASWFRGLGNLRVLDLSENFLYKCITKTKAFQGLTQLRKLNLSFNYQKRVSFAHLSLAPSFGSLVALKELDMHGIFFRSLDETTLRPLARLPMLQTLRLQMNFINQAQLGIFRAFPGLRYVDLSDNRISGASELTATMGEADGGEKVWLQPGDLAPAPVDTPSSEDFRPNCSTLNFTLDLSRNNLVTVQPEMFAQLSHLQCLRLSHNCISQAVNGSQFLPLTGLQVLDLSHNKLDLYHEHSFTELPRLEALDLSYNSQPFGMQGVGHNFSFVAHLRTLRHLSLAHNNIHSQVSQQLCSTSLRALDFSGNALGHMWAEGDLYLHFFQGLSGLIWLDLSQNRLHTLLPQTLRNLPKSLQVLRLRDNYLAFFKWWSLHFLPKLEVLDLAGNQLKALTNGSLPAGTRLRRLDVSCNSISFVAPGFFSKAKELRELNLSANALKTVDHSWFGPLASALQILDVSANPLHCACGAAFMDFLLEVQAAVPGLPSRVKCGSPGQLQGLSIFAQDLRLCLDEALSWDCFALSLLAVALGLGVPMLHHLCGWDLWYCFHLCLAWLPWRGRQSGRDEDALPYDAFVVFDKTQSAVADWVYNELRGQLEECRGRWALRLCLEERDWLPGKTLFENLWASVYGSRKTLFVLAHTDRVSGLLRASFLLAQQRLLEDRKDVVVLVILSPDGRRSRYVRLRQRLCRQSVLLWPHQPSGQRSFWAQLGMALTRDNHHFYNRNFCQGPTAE
Summary of the method: as §1

Row | SMILES | IC50 [1] [nM] | IC50 [2] [nM] | IC50 [3] [µM]
1 | CCCN1CCC(NC(=O)c2n[nH]c(-c3cc(OC)c4ncnn4c3)c2CC(F)(F)F)CC1 [Example 195, 5-(8-methoxy-[1,2,4]triazolo[1,5-a]pyridin-6-yl)-N-(1-propylpiperidin-4-yl)-4-(2,2,2-trifluoroethyl)-1H-pyrazole-3-carboxamide] | 1.66 | 2.24 | 5.5
2 | COc1cc(-c2[nH]nc(C(=O)NC3CCN(CC4CCOCC4)CC3)c2CC(F)(F)F)cn2ncnc12 [Example 197] | 2.08 | 5.35 | 13.1
3 | COc1cc(-c2[nH]nc(C(=O)NC3CCN(C4CCN(C(C)C)CC4)CC3)c2CC(F)(F)F)cn2ncnc12 [Example 199] | 2.19 | 4.98 | 2.95
4 | Cc1cc(-c2[nH]nc(C(=O)NC3CCN(C4COC4)CC3)c2CC(F)(F)F)cn2ncnc12 [Example 200] | 0.39 | 0.92 | 10.1
5 | Cc1cc(-c2[nH]nc(C(=O)NC3CCN(C4CCOCC4)CC3)c2CC(F)(F)F)cn2ncnc12 [Example 201] | 4.21 | 6.66 | 9.25
6 | Cc1cc(-c2[nH]nc(C(=O)NC3CCN(CC4CCOCC4)CC3)c2CC(F)(F)F)cn2ncnc12 [Example 204] | 0.63 | 1.5 | 17.8
7 | CNC(=O)CN1CCC(NC(=O)c2n[nH]c(-c3cc(OC)c4ncnn4c3)c2CC(F)(F)F)CC1 [Example 205, 5-(8-methoxy-[1,2,4]triazolo[1,5-a]pyridin-6-yl)-N-(1-(2-(methylamino)-2-oxoethyl)piperidin-4-yl)-4-(2,2,2-trifluoroethyl)-1H-pyrazole-3-carboxamide] | 2.33 | 6.66 | 21.5
8 | Cc1cc(-c2[nH]nc(C3CCN(C)CC3)c2C(C)C)cn2ncnc12 [Example 206, 6-(4-isopropyl-3-(1-methylpiperidin-4-yl)-1H-pyrazol-5-yl)-8-methyl-[1,2,4]triazolo[1,5-a]pyridine] | 0.64 | 2.27 | 12.6
9 | Cc1cc(-c2[nH]nc(C3CCN(C(=O)CCN(C)C)CC3)c2C(C)C)cn2ncnc12 [Example 208, 3-(dimethylamino)-1-(4-(4-isopropyl-5-(8-methyl-[1,2,4]triazolo[1,5-a]pyridin-6-yl)-1H-pyrazol-3-yl)piperidin-1-yl)propan-1-one] | 0.52 | 1 | 20
10 | CNC(=O)CN1CCC(c2n[nH]c(-c3cc(C)c4ncnn4c3)c2C(C)C)CC1 [Example 211, 2-(4-(4-isopropyl-5-(8-methyl-[1,2,4]triazolo[1,5-a]pyridin-6-yl)-1H-pyrazol-3-yl)piperidin-1-yl)-N-methylacetamide] | 0.58 | 0.79 | 14.3
11 | Cc1cc(-c2[nH]nc(-c3ccc4c(c3)CCNC4)c2C(C)C)cn2ncnc12 [Example 213, 6-(4-isopropyl-5-(8-methyl-[1,2,4]triazolo[1,5-a]pyridin-6-yl)-1H-pyrazol-3-yl)-1,2,3,4-tetrahydroisoquinoline, HCl] | 3.41 | 4.64 | 25.5
12 | Cc1cc(-c2[nH]nc(-c3ccc4cnccc4c3)c2C(C)C)cn2ncnc12 [Example 214] | 0.39 | 1.37 | 10.3
13 | Cc1cc(-c2[nH]nc(-c3ccc4c(c3)CCNC4=O)c2C(C)C)cn2ncnc12 [Example 215] | 6 | 2.3 | 15
14 | Cc1cc(-c2[nH]nc(-c3ncc4c(n3)CNC4)c2C(C)C)cn2ncnc12 [Example 216] | 1.02 | 0.72 | 6.52
15 | Cc1cc(-c2[nH]nc(-c3cc4n(n3)CCNC4)c2C(C)C)cn2ncnc12 [Example 217] | 5.3 | 2.41 | 5.87
16 | Cc1cc(-c2[nH]nc(-c3nc4c(s3)CNCC4)c2C(C)C)cn2ncnc12 [Example 218] | 18.6 | 1.44 | 35.9
17 | Cc1cc(-c2[nH]nc(-c3cn4c(n3)CNCC4)c2C(C)C)cn2ncnc12 [Example 219] | 713 | 637 | 46.2
18 | COc1cc(-c2[nH]nc(-c3nc4c(s3)CNCC4)c2C(C)C)cn2ncnc12 [Example 220] | 4.38 | 1.4 | > 50
19 | Cc1cc(-c2[nH]nc(-c3nc4c(s3)CCNC4)c2C(C)C)cn2ncnc12 [Example 221] | 33.3 | 3.08 | > 50
20 | Cc1cc(-c2[nH]nc(-c3ncc4c(n3)CCNC4)c2C(C)C)cn2ncnc12 [Example 222] | 1.94 | 0.75 | 30.4
21 | Cc1cc(-c2[nH]nc(-c3ccncc3)c2C(C)C)cn2ncnc12 [Example 223] | 10.3 | 8.65 | 14.3
22 | Cc1cc(-c2[nH]nc(-c3cccnc3)c2C(C)C)cn2ncnc12 [Example 224] | 0.63 | 0.56 | 9.03
